Data set [1] deals with spinal serotonergic pathways. Kind of data set: Spinal serotonin content after lesion of descending serotonergic pathways. It counts as in vivo. Conditions: 5,7-DHT 100 µg/rat intrathecal, 7 days; control 529±34.
Data set [2] concerns rats. Kind of data set: Paw pressure test, rat.
Procedure: The behavioural tests were performed in a quiet room and evaluated by a single investigator in a blinded manner. Treatments and/or genotypes were randomized in blocks and the number of animals in each block corresponded to the number of treatments and/or genotypes compared. […] Each animal was exposed to only one treatment.
The rats were submitted to the paw pressure test, using an Ugo Basile analgesy meter with a probe tip diameter of 1 mm (Bioseb, France). Nociceptive thresholds, expressed in grams (g), were measured by applying an increasing pressure to the right hind paw until a squeak (vocalization thresholds) was obtained (cut-off 750 g). Two consecutive stable vocalisation threshold values were first obtained (baseline).
Intrathecal injections were performed on anaesthetised rats held in one hand by the pelvic girdle. A 25 gauge 1 inch needle connected to a 25 µl Hamilton syringe was then inserted into the subarachnoidal space between lumbar vertebrae L5 and L6 until a tail flick was elicited. The syringe was held in position for few seconds after the injection of a volume of 10 µl [49]. All injections were performed under isoflurane anaesthesia (4% induction, 2% maintenance).
The subject of data set [3] is rats. Nature of the data set: Formalin test, rat. The data set is classed as in vivo. Here is the method:
(§1) The animals received an intraplantar injection of a 2.5% formalin solution (50 µl rat, 25 µl mouse) into a hind paw. The time spent biting and licking of the injected paw was monitored during the two typical phases of the nociceptive response (phase I: 0–5 min; phase II: 20–40 min in rats or 15–40 min in mice).

The format of data set [4] is in vivo, rat. Here is the method:
[…] The brain was removed from the skull and blood was collected in test tubes, containing 60 µl buffered citrate, and the tissues snap frozen in liquid nitrogen before storage at −70°C.
(§2) The whole brain was homogenized in ice-cold 10 mM Tris buffer (ml/g tissue) at pH 7.6. The buffer solution contained 1 mM EDTA, 0.3 mM ascorbic acid and 10 µM methylarachidonylfluorophosphonate (MAFP) to prevent degradation of AM404, arvanil, olvanil, anandamide and 2-arachidonoylglycerol. Aliquots (200 µl) of blood and homogenates were precipitated with 1 ml ice-cold acetone, containing AM404-D4 (5 nM) or anandamide-D8 (100 nM) as internal standard. After centrifugation at 25,200 g for 30 min at 4°C, the supernatants were collected in polypropylene tubes and vacuum evaporated. The protein content of the pellet was determined with Coomassie protein assay (Pierce; Illinois, USA), using bovine serum albumin as standard. […] Samples were analyzed on a Waters Aquity UPLC system coupled to a Sciex 5500 tandem mass spectrometer (LC-MS/MS; AB Sciex; Massachusetts, USA) or a Perkin Elmer 200 HPLC system coupled to an API 3000 tandem mass spectrometer (LC-MS-MS; Applied Biosystems/MDS-SCIEX).
Quantification of AM404, HPODA, arvanil and olvanil. Samples were analyzed on a Waters Aquity UPLC system coupled to a Sciex 5500 tandem mass spectrometer. […]

The target in another data set is T1, TRPV1 (Rattus norvegicus, UniProt O35433).
T1 construct: rat mesenteric arterial segments precontracted with phenylephrine; from tissue; host or cells: rat isolated mesenteric arterial segments (Sprague-Dawley rats)
T1 sequence (O35433 whole entry): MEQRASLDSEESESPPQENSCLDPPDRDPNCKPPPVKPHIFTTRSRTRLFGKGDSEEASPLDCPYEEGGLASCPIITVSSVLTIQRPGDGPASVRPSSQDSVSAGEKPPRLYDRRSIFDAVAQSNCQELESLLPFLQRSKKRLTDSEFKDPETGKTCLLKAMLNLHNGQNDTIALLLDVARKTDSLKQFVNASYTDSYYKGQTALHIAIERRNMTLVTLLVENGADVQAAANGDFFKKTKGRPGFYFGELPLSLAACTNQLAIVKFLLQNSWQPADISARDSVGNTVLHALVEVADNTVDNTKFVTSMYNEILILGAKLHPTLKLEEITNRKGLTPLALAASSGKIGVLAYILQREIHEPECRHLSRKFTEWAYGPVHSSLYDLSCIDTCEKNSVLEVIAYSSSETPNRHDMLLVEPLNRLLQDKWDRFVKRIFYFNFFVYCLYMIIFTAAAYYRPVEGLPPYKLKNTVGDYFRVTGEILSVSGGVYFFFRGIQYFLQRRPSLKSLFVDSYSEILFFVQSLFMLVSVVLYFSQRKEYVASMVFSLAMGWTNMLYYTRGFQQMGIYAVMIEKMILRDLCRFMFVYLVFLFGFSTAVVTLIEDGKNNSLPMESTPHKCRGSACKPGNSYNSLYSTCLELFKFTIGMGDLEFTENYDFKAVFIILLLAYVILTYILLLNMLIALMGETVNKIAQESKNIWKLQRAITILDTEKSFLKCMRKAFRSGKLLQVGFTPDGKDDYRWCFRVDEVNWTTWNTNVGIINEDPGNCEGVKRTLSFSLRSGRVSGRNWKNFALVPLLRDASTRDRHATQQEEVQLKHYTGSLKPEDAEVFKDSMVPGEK
Nature of the data set: TRPV1 activation assessed as nerve-mediated vasorelaxation in rat isolated mesenteric arteries. It counts as cell-based. How it is done:
TRPV1 activation was assessed indirectly on rat isolated mesenteric arteries, using nerve-mediated vasorelaxation as readout. Briefly, arterial segments (2 mm long) were suspended between two stainless steel wires in temperature-controlled tissue baths (37°C), containing aerated (95% O2 and 5% CO2) physiological salt solution (composition in mM: NaCl 119, KCl 4.6, CaCl2 1.5, MgCl2 1.2, NaHCO3 15, NaH2PO4 1.2 and D-glucose 6; pH 7.4), under a passive load of 2 mN. One of the wires was connected to a force-displacement transducer model FT03 C (Grass Instruments; Rhode Island, USA) for isometric tension recording. Vasorelaxation was studied in arterial segments submaximally contracted with phenylephrine. Increasing concentrations of AM404, arvanil, olvanil and HPODA in the absence and presence of capsazepine (3 µM) were then added cumulatively to determine concentration-response relationships. All experiments were performed in the presence of indomethacin (10 µM) and N^ω-nitro-L-arginine (300 µM) to reduce cyclooxygenase and nitric oxide synthase activity, respectively.
Data are presented as the mean ± SEM, and n indicates the number of animal tested in each group. pEC50 of the lipid metabolites indicates the negative log concentration that elicited half-maximal vasorelaxation. Mann-Whitney U test or Student’s t-test was used when two groups were compared. When multiple groups were compared, Kruskal-Wallis one-way ANOVA followed by Dunn’s multiple comparisons test was used. Data from the paw pressure test were analyzed by repeated measures two-way ANOVA followed by Sidak’s or Dunnett’s multiple comparisons test. The level of statistical significance was set at p<0.05. GraphPad Prism 6.0 software (California, USA) was used in all calculations and statistical analyses.

The nature of data set [5]: Contents of amines and lipid metabolites in blood and brain after i.p. injection in mice (LC-MS/MS). The data set is classed as in vivo, mouse. Here is the method: Twenty min after drug administration, the animals were anesthetized by CO2 (rats) or isoflurane (mice) inhalation and decapitated. The brain was removed from the skull and blood was collected in test tubes, containing 60 µl buffered citrate, and the tissues snap frozen in liquid nitrogen before storage at −70°C.
as §2
Quantification of AM404, HPODA, arvanil and olvanil. Samples were analyzed on a Waters Aquity UPLC system coupled to a Sciex 5500 tandem mass spectrometer. Sample aliquots of 5 µl were injected into an Acquity UPLC BEH C18 column (100 × 2 mm, 1.7 µm; Waters) held at 50°C. All mobile phases were water-acetonitrile gradients, containing 0.1% formic acid and using a flow rate of 400 µl/min. The acetonitrile content was initially 30%, then increased linearly to 100% over 7 min and kept at this level for 4 min, followed by an equilibration period at 30% for 2 min. The electrospray interface was operating in the positive ion mode at 550°C and the ion spray voltage was set to 5000 volts. The mass transitions (m/z) used were the following: 396.2/110.1 for AM404, 374.2/110.0 for HPODA, 400.2/114.0 for AM404-D4, 440.3/137.1 for arvanil and 418.3/137.1 for olvanil. The declustering potentials were between 96 and 130 volts and the collision energies between 25 and 41 volts.
Quantification of 4-aminophenol and HMBA. Sample aliquots of 5 µl were injected into a Hypercarb column (50 × 2.1 mm; Thermo). All mobile phases were water-acetonitrile gradients, containing 0.1% formic acid. The acetonitrile content was initially 2%, then increased linearly to […] over 5 min and then kept at 100% for 1 min, followed by an equilibration period at 2% for 1.5 min. The electrospray ion source was set at 550°C and used in the positive ion mode with an ion spray voltage of 5000. […] HMBA loses the amino group already in the source of the MS and therefore the mass transition used was 137.0/94.0. The declustering potentials were 100 and 90 volts and the collision energies 21 and 29 volts. No internal standard was used for these analyses.
The contents of the compounds were expressed either in moles or as normalized peak areas (nPA) and related to the protein content in the samples. The nPA was obtained by dividing the peak area of the analyte with the peak area for the internal standard in the same sample. The detection limits were calculated as the concentrations corresponding to three times the standard deviation of the blanks. When levels were below detection limit, numerical values of half the detection limit were used in the calculations.

In data set [6] the test system is patients with postoperative pain. Set-up: method as in PMID 18843665. Conditions: single oral dose of 1000 mg; cited from earlier work.
The subject of the next data set is mice. Kind of data set: Formalin test, mouse. The data set is classed as in vivo. The note with it: mice. How it is done:
as §1

The subject of another data set is human TRPV1. Set-up: method as in PMID 11033355. The note with it: HEK293 cells expressing human TRPV1, fluorometric calcium imaging; cited from earlier work.
The mark [7] stands for this setting: AM251 3 mg/kg i.p., 4-aminophenol 100 mg i.p.
Setting [8] is: PMSF 10 mg/kg s.c., 4-aminophenol 100 mg/kg i.p.
The mark [9] stands for this setting: capsazepine 10 mg/kg i.p., 4-aminophenol 100 mg/kg.

Molecules are shown by their SMILES. pEC50: −log10 of the molar value. Where “and” joins values, the source holds several entries; their conditions need not be identical. Equal values may be shown once. Read-outs that look alike come from different tables or passages of the source. Bounds are passed on as bounds.

Turning to `NCCc1c[nH]c2c(O)cc(O)cc12` [5,7-DHT, 5,7-dihydroxytryptamine], in data set [1], the spinal serotonin content was determined as 359±38 ng/g tissue wet weight. The “effect on antinociceptive effect of 4-aminophenol, rat paw pressure test” value (“effect … rat paw pressure test” for short) in the data set with rats [2] (5,7-DHT 100 µg/rat intrathecal, 7 days before test, 4-aminophenol 100 mg/kg i.p.) is “inhibited the antinociceptive effect”.

On to `Cc1c(C(=O)NN2CCCCC2)nn(-c2ccc(Cl)cc2Cl)c1-c1ccc(I)cc1` [AM251, N-(piperidin-1-yl)-5-(4-iodophenyl)-1-(2,4-dichlorophenyl)-4-methyl-1H-pyrazole-3-carboxamide], for which, in the data set with rats [3] (setting [7]), the “effect on antinociceptive effect of 4-aminophenol, rat formalin test” value (“effect … rat formalin test” for short) is given as “prevented the antinociceptive effect”. The “effect … rat paw pressure test” value with rats [2] (setting [7]) is “prevented the antinociceptive effect”.

On to `CCCCC/C=C\C/C=C\C/C=C\C/C=C\CCCC(=O)Nc1ccc(O)cc1` [AM404, N-(4-Hydroxyphenyl)-5Z,8Z,11Z,14Z-eicosatetraenamide], for which the “content of AM404 in rat brain at different time points” value in data set [4] (4-aminophenol 100 mg/kg i.p., 15 min and 30 min) is given as “Significant amounts”. The pEC50 (usually the negative decadic logarithm of the EC50, by convention in mol/L) on TRPV1 was 7.50. For the same compound, the “times more potent than HPODA as TRPV1 activator” value on TRPV1 (vasorelaxation readout) stood at 3.3 times. Also, the “Brain AM404” value in data set [5] (20 min after 4-AP 30 mg/kg i.p., mouse) is 411 pmol/g and 411 ± 134 pmol/g; in data set [5] (20 min after 4-AP 100 mg/kg i.p., mouse), 4829 ± 1435 pmol/g. For the same compound, the “brain content in FAAH−/− mice compared to FAAH+/+ littermates” value in data set [5] (20 min after i.p. 4-aminophenol (30 and 100 mg/kg) or HMBA (300 mg/kg)) is recorded as “substantially reduced”. Further, the “quotient between the brain contents of lipid metabolite and its parent amine” value in data set [5] (mouse, in vivo) was 1∶1,500.

Consider `CCCCCCCC/C=C\CCCCCCCC(=O)Nc1ccc(O)cc1` [HPODA, N-(4-hydroxyphenyl)-9Z-octadecenamide], for which, on TRPV1 (capsazepine-sensitive vasorelaxation, rat mesenteric arterial segments precontracted with phenylephrine, read-out: pEC50 (negative log concentration eliciting half-maximal vasorelaxation) (converted)), the EC50 was 100 nM. Moreover, in data set [5] (mouse, in vivo), the “brain content in FAAH−/− mice compared to wild-type littermates” value was “no significant difference”. Also, in data set [5] (mouse, in vivo, 20 min), the “increase of brain content in FAAH−/− mice compared to wild-type littermates” value was 3 fold.

In the case of `O=S(=O)(F)Cc1ccccc1` [PMSF, phenylmethylsulfonyl fluoride], in data set [4] (PMSF 10 mg/kg s.c. pretreatment, 20 min after 4-aminophenol 100 mg/kg i.p.), the “effect on formation of AM404 in rat brain” value is given as “substantially reduced the formation of AM404”. The “effect … rat formalin test” value in the data set on rats [3] (setting [8]) is “inhibited the antinociceptive effect”. For the same compound, the “effect … rat paw pressure test” value in the data set with rats [2] (setting [8]) was “inhibited the antinociceptive effect”.

Take `CC(=O)Nc1ccc(O)cc1` [Paracetamol]: the “NNT (numbers needed to treat) for at least 50% pain reduction over 4–6 hours” value in data set [6] is listed as 3.6.

Consider `COc1ccccc1N1CCN(CCN(C(=O)C2CCCCC2)c2ccccn2)CC1.O=C(O)/C=C\C(=O)O` [WAY-100635, N-[2-[4-(2-methoxyphenyl)-1-piperazinyl]ethyl]-N-2-pyridinylcyclohexane-carboxamide maleate], for which the “effect … rat formalin test” value with rats [3] (WAY-100635 40 µg/rat intrathecal 5 min before 4-aminophenol 100 mg/kg i.p.) is listed as “prevented”.

Take `Oc1cc2c(cc1O)CN(C(=S)NCCc1ccc(Cl)cc1)CCC2` [capsazepine, N-[2-(4-Chlorophenyl)ethyl]-1,3,4,5-tetrahydro-7,8-dihydroxy-2H-2-benzazepine-2-carbothioamide]: in the data set with rats [3] (setting [9]), the “effect … rat formalin test” value is listed as “prevented the antinociceptive effect”. Also, at TRPV1 (capsazepine 3 µM), the “effect on vasorelaxation evoked by arvanil, olvanil and HPODA” value is on record as “significantly suppressed the vasorelaxation”. Besides, the “effect on antinociceptive effect of 4-aminophenol in formalin test” value with mice (capsazepine 100 nmol into lateral ventricle 5 min prior to 4-aminophenol 30 mg/kg i.p.) was “eliminated the antinociceptive effects”. Moreover, the “effect on antinociceptive effect of HMBA in formalin test” value with mice (capsazepine 100 nmol into lateral ventricle 5 min prior to HMBA 100 mg/kg i.p.) was “eliminated the antinociceptive effects”. For the same compound, the “effect … rat paw pressure test” value with rats [2] (setting [9]) is on record as “prevented the antinociceptive effect”.

Turning to `Cc1c(N(C)CS(=O)(=O)[O-])c(=O)n(-c2ccccc2)n1C.[Na+]` [dipyrone], the “antinociception in formalin test” value in the data set with mice (dipyrone 50 mg/kg i.p.) is reported as “effective antinociceptive agent”.

Take `CCCCCCCC/C=C\CCCCCCCC(=O)NCc1ccc(O)c(OC)c1` [olvanil, N-(4-hydroxy-3-methoxybenyl)-9Z-octadecenamide]: in the data set with human TRPV1, the “times more potent than AM404” value is recorded as “approximately 50 times”. The pEC50 on TRPV1 was 9.50. Also, at TRPV1 (vasorelaxation readout), the “times more potent than AM404 as TRPV1 activator” value is > 100 times and 110 times; the “times more potent than HPODA as TRPV1 activator” value is more than 300 times. For the same compound, the “Brain Olvanil” value in data set [5] (20 min after HMBA 300 mg/kg i.p., mouse) is 45 ± 5.6 pmol/g. For the same compound, the “brain content in FAAH−/− mice compared to FAAH+/+ littermates” value in data set [5] (mouse, in vivo) was “substantially reduced”.

As to `CN1[C@@H]2CC[C@H]1C[C@@H](OC(=O)c1c[nH]c3ccccc13)C2` [tropisetron, Tropisetron], the “effect … rat paw pressure test” value in the data set on rats [2] (tropisetron 500 ng/rat intrathecal 5 min before 4-aminophenol 100 mg/kg i.p.) is given as “prevented”.

The values above are taken from PMC3734263, “Fatty Acid Amide Hydrolase-Dependent Generation of Antinociceptive Drug Metabolites Acting on TRPV1 in the Brain” (PLoS ONE, 2013).
